32 compounds from US8927484B2, “Antiviral compounds” (Gilead Sciences, Inc., priority 2009, dated 2015) can be followed below.

SMILES strings stand for the structures. Bounds are passed on as bounds.

The experiment relates to Replicon cells harboring H77 (genotype 1a) or Con1 (genotype 1b) HCV RNA and Renilla luciferase reporter. Nature of the experiment: High Throughput Replicon Assay (HTBS). Type of experiment: cell-based. To be noted: 72 h, read-out: INH @1 μM (Mean). As for the experimental part: High Throughput Replicon Assay (HTBS)
Replicon cells harboring H77 (genotype 1a) or Con1 (genotype 1b) HCV RNA and Renilla luciferase reporter were seeded in 384-well black plates at a density of 1.6×10^3 cells per well in 90 μl of DMEM culture medium, excluding G-418. Compounds were serially diluted in 100% DMSO and added to cells at a 1:225 dilution, achieving a final concentration of 0.44% DMSO in a total volume of 90 μL with a Biotek uFlow Workstation. Cell plates were incubated at 37° C. with 5% CO2 for 3 days, after which culture media were removed and cells were assayed for luciferase activity as a marker for replication level. Luciferase expression was measured using Dual-Glo luciferase assay reagents (Promega, Madison, Wis.). Briefly, 20 μL of Dual-Glo luciferase buffer was added to lyse the cells for 10 min and subsequently 20 μL of a diluted Dual-Glo Stop & Glo substrate (1:100) was added to each well. Luminescence signal was measured on a Perkin Elmer Envision Plate Reader after incubation for 10 minute. Luciferase levels were converted into percentages relative to the untreated controls (defined as 100%) and data were fit to the logistic dose response equation y=a/(1+(x/b)^c) using XLFit4 software (IDBS, Emeryville, Calif.). EC50 values were calculated from the resulting equations.
For orientation: In antiviral work, replicon cells carry a viral genome segment that copies itself.
On to `C=C[C@@H]1C[C@]1(NC(=O)[C@@H]1C[C@@H](Oc2cc(-c3csc(C(C)C)n3)nc3c(Cl)c(OC)ccc23)[C@H]2CN(C(=O)OC(C)(C)C)[C@H](C(C)(C)C)C(=O)N21)C(=O)NS(=O)(=O)C1CC1` [Example 2], for which the inhibition at 1 µM is above 99%.

With `C=C[C@@H]1C[C@]1(NC(=O)[C@@H]1C[C@@H](Oc2cc(-c3csc(C(C)C)n3)nc3c(Cl)c(OC)ccc23)[C@H]2CN(C(=O)OC(C)(C)C)[C@H](C(C)(C)C)C(=O)N21)C(=O)NS(=O)(=O)C1(C)CC1` [Example 4], the inhibition at 1 µM is above 99%.

As to `CC[C@@H]1C[C@]1(NC(=O)[C@@H]1C[C@@H](Oc2cc(-c3nc(C(C)C)cs3)nc3c(Cl)c(OC)ccc23)[C@H]2CN(C(=O)OC(C)(C)C)[C@H](C(C)C)C(=O)N21)C(=O)NS(=O)(=O)C1CC1` [Example 6], the inhibition at 1 µM was above 99%.

In the case of `C=C[C@@H]1C[C@]1(NC(=O)[C@@H]1C[C@@H](Oc2cc(-c3nc(C(C)C)cs3)nc3c(Cl)c(OC)ccc23)[C@H]2CN(C(=O)OC(C)(C)C)[C@H](C(C)C)C(=O)N21)C(=O)NS(=O)(=O)C1CC1` [Example 8], the inhibition at 1 µM was above 99%.

Consider `C=C[C@@H]1C[C@]1(NC(=O)[C@@H]1C[C@@H](Oc2cc(-c3nc(C(C)C)cs3)nc3c(Cl)c(OCCN4CCOCC4)ccc23)[C@H]2CN(C(=O)OC(C)(C)C)[C@H](C(C)C)C(=O)N21)C(=O)NS(=O)(=O)C1CC1` [Example 9], for which the inhibition at 1 µM is above 99%.

For `CC[C@@H]1C[C@]1(NC(=O)[C@@H]1C[C@@H](Oc2cc(-c3nc(C(C)C)cs3)nc3c(Cl)c(OCCN4CCOCC4)ccc23)[C@H]2CN(C(=O)OC(C)(C)C)[C@H](C(C)C)C(=O)N21)C(=O)NS(=O)(=O)C1CC1` [Example 11], the inhibition at 1 µM is above 50%.

In the case of `CC[C@@H]1C[C@]1(NC(=O)[C@@H]1C[C@@H](Oc2cc(-c3nc(C(C)C)cs3)nc3c(Cl)c(OCC(OC)OC)ccc23)[C@H]2CN(C(=O)OC(C)(C)C)[C@H](C(C)C)C(=O)N21)C(=O)NS(=O)(=O)C1CC1` [Example 13], the inhibition at 1 µM was above 99%.

Take `C=C[C@@H]1C[C@]1(NC(=O)[C@@H]1C[C@@H](Oc2cc(-c3nc(C(C)C)cs3)nc3c(Cl)c(OCCN4CCOCC4)ccc23)[C@H]2CN(S(C)(=O)=O)[C@H](C(C)C)C(=O)N21)C(=O)NS(=O)(=O)C1CC1` [Example 16]: the inhibition at 1 µM was above 25%.

For the compound `C=C[C@@H]1C[C@]1(NC(=O)[C@@H]1C[C@@H](Oc2cc(-c3nc(C(C)C)cs3)nc3c(Cl)c(OCCN4CCOCC4)ccc23)[C@H]2CN(C(=O)NC(C)(C)C)[C@H](C(C)C)C(=O)N21)C(=O)NS(=O)(=O)C1CC1` [Example 18], the inhibition at 1 µM is above 35%.

With `C=C[C@@H]1C[C@]1(NC(=O)[C@@H]1C[C@@H](Oc2cc(-c3nc(C(C)C)cs3)nc3c(Cl)c(OCCN4CCOCC4)ccc23)[C@H]2CN(C(=O)CC(C)(C)C)[C@H](C(C)C)C(=O)N21)C(=O)NS(=O)(=O)C1CC1` [Example 19], the inhibition at 1 µM was above 55%.

As to `C=C[C@@H]1C[C@]1(NC(=O)[C@@H]1C[C@@H](Oc2cc(-c3nc(C(C)C)cs3)nc3c(Cl)c(OCCN4CCOCC4)ccc23)[C@H]2CN(C(=O)OC3CCCC3)[C@H](C(C)C)C(=O)N21)C(=O)NS(=O)(=O)C1CC1` [Example 20], the inhibition at 1 µM was above 90%.

As to `C=C[C@@H]1C[C@]1(NC(=O)[C@@H]1C[C@@H](Oc2cc(-c3cccc(C(C)C)n3)nc3c(Cl)c(OC)ccc23)[C@H]2CN(C(=O)OC(C)(C)C)[C@H](C(C)C)C(=O)N21)C(=O)NS(=O)(=O)C1CC1` [Example 21], the inhibition at 1 µM was above 99%.

With `C=C[C@@H]1C[C@]1(NC(=O)[C@@H]1C[C@@H](Oc2cc(-c3nc(C(C)C)cs3)nc3c(Cl)c(OCCOC)ccc23)[C@H]2CN(C(=O)OC(C)(C)C)[C@H](C(C)(C)C)C(=O)N21)C(=O)NS(=O)(=O)C1CC1` [Example 22], the inhibition at 1 µM was above 99%.

`C=C[C@@H]1C[C@]1(NC(=O)[C@@H]1C[C@@H](Oc2cc(-c3nc(C(C)C)cs3)nc3c(C)c(OC)ccc23)[C@H]2CN(C(=O)OC(C)(C)C)[C@H](C(C)(C)C)C(=O)N21)C(=O)NS(=O)(=O)C1CC1` [Example 24]: the inhibition at 1 µM is above 99%.

On to `C=C[C@@H]1C[C@]1(NC(=O)[C@@H]1C[C@@H](Oc2cc(-c3nc(C(C)C)cs3)nc3c(Cl)c(OCCN4CCOCC4)ccc23)[C@H]2CN(C(=O)OC(C)(C)C)[C@H](C(C)(C)C)C(=O)N21)C(=O)NS(=O)(=O)C1CC1` [Example 26], for which the inhibition at 1 µM is above 99%.

With `C=C[C@@H]1C[C@]1(NC(=O)[C@@H]1C[C@@H](Oc2cc(-n3ccc(C(C)C)n3)nc3c(Cl)c(OCCN4CCOCC4)ccc23)[C@H]2CN(C(=O)OC(C)(C)C)[C@H](C(C)(C)C)C(=O)N21)C(=O)NS(=O)(=O)C1CC1` [Example 28], the inhibition at 1 µM was above 99%.

Regarding `C=C[C@@H]1C[C@]1(NC(=O)[C@@H]1C[C@@H](Oc2cc(-n3ccc(C(C)C)n3)nc3c(Cl)c(OCCN4CCOCC4)ccc23)[C@H]2CN(C(=O)OC(C)(C)C)[C@H](C(C)C)C(=O)N21)C(=O)NS(=O)(=O)C1CC1` [Example 30], the inhibition at 1 µM is above 35%.

For the compound `C=C[C@@H]1C[C@]1(NC(=O)[C@@H]1C[C@@H](Oc2cc(-c3nc(C(C)C)cs3)nc3c(Cl)c(OCCN4CCOCC4)ccc23)[C@H]2CN(C(=O)OC(C)(C)C)[C@H](C(C)(C)OC)C(=O)N21)C(=O)NS(=O)(=O)C1CC1` [Example 34], the inhibition at 1 µM was above 95%.

As for `C=C[C@@H]1C[C@]1(NC(=O)[C@@H]1C[C@@H](Oc2cc(-c3nc(C(C)C)cs3)nc3c(Cl)c(OCCN4CCOCC4)ccc23)[C@H]2CN(C(=O)OC(C)(C)C)C(=C(C)C)C(=O)N21)C(=O)NS(=O)(=O)C1CC1` [Example 35], the inhibition at 1 µM is above 35%.

In the case of `CC[C@@H]1C[C@]1(NC(=O)[C@@H]1C[C@@H](Oc2cc(-c3nc(C(C)C)cs3)nc3c(Cl)c(OCCN4CCOCC4)ccc23)[C@H]2CN(C(=O)OC(C)(C)C)[C@H]([C@H](C)CC)C(=O)N21)C(=O)NS(=O)(=O)C1CC1` [Example 36], the inhibition at 1 µM is above 90%.

Take `C=C[C@@H]1C[C@]1(NC(=O)[C@@H]1C[C@@H](Oc2cc(-c3nc(C(C)C)cs3)nc3c(C)c(OC)ccc23)[C@H]2CN(C(=O)OC(C)(C)C)C([C@H](C)CC)C(=O)N21)C(=O)NS(=O)(=O)C1CC1` (some centres unmarked) [Example 38]: the inhibition at 1 µM is above 95%.

For the compound `C=C[C@@H]1C[C@]1(NC(=O)[C@@H]1C[C@@H](Oc2cc(-c3nc(C(C)C)cs3)nc3c(Cl)c(OCCN4CCOCC4)ccc23)[C@H]2CN(C(=O)OC(C)(C)C)[C@H]([C@@H](C)CC)C(=O)N21)C(=O)NS(=O)(=O)C1CC1` [Example 40], the inhibition at 1 µM is above 75%.

In the case of `CC[C@@H]1C[C@]1(NC(=O)[C@@H]1C[C@@H](Oc2cc(-c3nc(C(C)C)cs3)nc3c(Cl)c(OCCN4CCOCC4)ccc23)[C@H]2CN(C(=O)OC(C)(C)C)[C@H]([C@@H](C)CC)C(=O)N21)C(=O)NS(=O)(=O)C1CC1` [Example 42], the inhibition at 1 µM is above 95%.

`C=C[C@@H]1C[C@]1(NC(=O)[C@@H]1C[C@@H](Oc2cc(-c3cccc(C(C)C)n3)nc3c(Cl)c(OC)ccc23)[C@H]2CN(C(=O)OC(C)(C)C)[C@H](C(C)(C)C)C(=O)N21)C(=O)NS(=O)(=O)C1CC1` [Example 44]: the inhibition at 1 µM was above 99%.

Regarding `C=C[C@@H]1C[C@]1(NC(=O)[C@@H]1C[C@@H](Oc2cc(-c3nc(C(C)C)cs3)nc3c(Cl)c(OCCN4CCOCC4)ccc23)[C@H]2CN(C(=O)OC(C)(C)C)[C@H](C(C)C)C(=O)N21)C(=O)NS(=O)(=O)C1(C)CC1` [Example 46], the inhibition at 1 µM was above 99%.

For the compound `C=C[C@@H]1C[C@]1(NC(=O)[C@@H]1C[C@@H](Oc2cc(-c3nc(C(C)C)cs3)nc3c(Cl)c(OCCN4CCOCC4)ccc23)[C@H]2CN(C(=O)OC(C)(C)C)[C@H]([C@H](C)CC)C(=O)N21)C(=O)NS(=O)(=O)C1CC1` [Example 49], the inhibition at 1 µM is above 95%.

Consider `C=C[C@@H]1C[C@]1(NC(=O)[C@@H]1C[C@@H](Oc2cc(-c3nc(C(C)C)cs3)nc3c(Cl)c(OCCN4CCOCC4)ccc23)[C@H]2CN(C(=O)OC(C)(C)C)[C@H]([C@@H](C)OC)C(=O)N21)C(=O)NS(=O)(=O)C1CC1` [Example 54], for which the inhibition at 1 µM is above 45%.

Take `C=C[C@@H]1C[C@]1(NC(=O)[C@@H]1C[C@@H](Oc2cc(-c3nc(C(C)C)cs3)nc3c(Cl)c(OCCN4CCOCC4)ccc23)[C@H]2CN(C(=O)OC(C)(C)C)[C@H]([C@H](C)OC)C(=O)N21)C(=O)NS(=O)(=O)C1CC1` [Example 55]: the inhibition at 1 µM is above 95%.

Turning to `C=C[C@@H]1C[C@]1(NC(=O)[C@@H]1C[C@@H](Oc2cc(-c3nc(C(C)C)cs3)nc3c(C)c(OC)ccc23)[C@H]2CN(C(=O)OC(C)(C)C)[C@H](C(C)C)C(=O)N21)C(=O)NS(=O)(=O)C1CC1` [Example 58], the inhibition at 1 µM was above 85%.

Regarding `CC[C@@H]1C[C@]1(NC(=O)[C@@H]1C[C@@H](Oc2cc(-c3nc(C(C)C)cs3)nc3c(C)c(OC)ccc23)[C@H]2CN(C(=O)OC(C)(C)C)[C@H](C(C)C)C(=O)N21)C(=O)NS(=O)(=O)C1CC1` [Example 59], the inhibition at 1 µM is above 45%.

In the case of `C=C[C@@H]1C[C@]1(NC(=O)[C@@H]1C[C@@H](Oc2cc(-c3nc(C(C)C)cs3)nc3c(C)c(OC)ccc23)[C@H]2CN(C)[C@H](C(C)C)C(=O)N21)C(=O)NS(=O)(=O)C1CC1` [Example 62], the inhibition at 1 µM is above 99%.

`CC[C@@H]1C[C@]1(NC(=O)[C@@H]1C[C@@H](Oc2cc(-c3nc(C(C)C)cs3)nc3c(C)c(OC)ccc23)[C@H]2CN(C)[C@H](C(C)C)C(=O)N21)C(=O)NS(=O)(=O)C1CC1` [Example 63]: the inhibition at 1 µM was above 40%.
